Results published in patent US20060270666A1, “Quinoxaline derivatives as neutrophil elastase inhibitors and their use” (priority 2003, published 2006).

Target: T1, Human Neutrophil Elastase (HNE) (Homo sapiens, UniProt P08246)
T1 construct: Human Neutrophil Elastase (HNE) purified from serum (Calbiochem art. 324681); purchased Calbiochem 324681; host or cells: natural human material (serum)
T1 sequence (P08246 30-267): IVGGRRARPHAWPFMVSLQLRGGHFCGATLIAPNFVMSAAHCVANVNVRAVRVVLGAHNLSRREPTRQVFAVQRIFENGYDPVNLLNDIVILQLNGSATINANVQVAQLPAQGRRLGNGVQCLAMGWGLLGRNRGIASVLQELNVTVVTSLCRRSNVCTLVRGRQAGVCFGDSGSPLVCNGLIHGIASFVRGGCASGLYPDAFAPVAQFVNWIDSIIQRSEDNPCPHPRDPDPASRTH
Assay: Human Neutrophil Elastase Quenched-FRET Assay
Assay type: biochemical
Settings: HNE purified from serum; substrate MeOSuc-AAPV-AMC; 15 min pre-incubation, 30 min incubation at room temperature; read-out: Inhibition of Human Neutrophil Elastase IC50
Protocol: Human Neutrophil Elastase Quenched-FRET Assay
The assay uses Human Neutrophil Elastase (HNE) purified from serum (Calbiochem art. 324681; Ref. Baugh, R. J. et al., 1976, Biochemistry. 15, 836-841). HNE was stored in 50 mM NaOAc, 200 mM NaCl, pH 5.5 with added 30% glycerol at −20° C. The protease substrate used was Elastase Substrate V Fluorogenic, MeOSuc-AAPV-AMC (Calbiochem art. 324740; Ref. Castillo, M. J. et al., 1979, Anal. Biochem. 99, 53-64). The substrate was stored in DMSO at −20° C. The assay additions were as follows: Test compounds and controls were added to black 96-well flat-bottom plates (Greiner 655076), 1 μL in 100% DMSO, followed by 30 μL HNE in assay buffer with 0.01% TritonX-100. The assay buffer constitution was: 100 mM Tris (pH 7.5) and 500 mM NaCl. The enzyme and the compounds were incubated at room temperature for 15 minutes. Then 30 μl substrate in assay buffer was added. The assay was stopped after 30 minutes incubation at room temperature by adding 60 μl stop solution (140 mM acetic acid, 200 mM sodium monochloroacetate, 60 mM sodium acetate, pH 4.3). Fluorescence was measured on a Wallac 1420 Victor 2 instrument at settings: Excitation 380 nm, Emission 460 nm. IC50 values were determined using Xlfit curve fitting using model 205.

Row | IC50 [nM] | Compound
1 | 226 | Cc1ccc(CNC(=O)c2nc3ccccc3n(-c3cccc(C(F)(F)F)c3)c2=O)cc1 [Example 2.12, N-(4-Methylbenzyl)-3-oxo-4-[3-(trifluoromethyl)phenyl]-3,4-dihydroquinoxaline-2-carboxamide]
2 | 248 | N#CC1CCC(CNC(=O)c2nc3ccccc3n(-c3cccc(C(F)(F)F)c3)c2=O)CC1 (stereo not drawn) [Example 2.10, N-[(4-Cyanocyclohexyl)methyl]-3-oxo-4-[3-(trifluoromethyl)phenyl]-3,4-dihydroquinoxaline-2-carboxamide]
3 | 573 | O=C(NCCc1ccc(F)cc1)c1nc2ccccc2n(-c2cccc(C(F)(F)F)c2)c1=O [Example 2.20, N-[2-(4-Fluorophenyl)ethyl]-3-oxo-4-[3-(trifluoromethyl)phenyl]-3,4-dihydroquinoxaline-2-carboxamide]
